Source: PubChem BioAssay (NCI)
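Exposure lasted 48 hours, with cells grown in 96-well plates and compounds tested at five concentrations. GI50 = concentration required for 50% inhibition of growth. Definition used: TGI = concentration required for complete inhibition of growth.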

Key:
Assay in all cases: DTP human tumour cell line panel, 48 h
[1] = tested on: OVCAR-3 ovarian
[2] = tested on: KM12 colon
[3] = tested on: TK-10 renal
[4] = tested on: KM20L2 colon
[5] = tested on: DMS 114 small cell lung
[6] = tested on: A498 renal
[7] = tested on: NCI-H226 lung
[8] = tested on: DMS 273 small cell lung
[9] = tested on: HS 578T breast
[10] = tested on: NCI/ADR-RES ovarian

Row | SMILES | TGI [1] | TGI [2] | TGI [3] | TGI [4] | TGI [5] | TGI [6] | TGI [7] | TGI [8] | TGI [9] | TGI [10] | GI50 [1] | GI50 [2] | GI50 [7] | GI50 [3] | GI50 [4] | GI50 [6] | GI50 [9] | GI50 [10] | GI50 [5]
1 | CNS(=O)(=O)NNS(=O)(=O)c1ccc(Cl)cc1 | > 100 µM | > 100 µM | > 100 µM | > 100 µM | > 100 µM | > 100 µM |  |  |  |  |  |  |  |  |  |  |  |  | 
2 | COC(CN1C=C(Sc2ccccc2)CC1)OC | 63.6 µM | 67.8 µM | > 100 µM | > 100 µM | 65.4 µM | > 100 µM | > 100 µM |  |  |  |  |  |  |  |  |  |  |  | 
3 | CC1(C)OCC(C(O)C2OC(C)(C)OC2/C=N\O)O1 (configuration not stated) | > 100 µM | > 100 µM | > 100 µM | > 100 µM | > 100 µM | > 100 µM |  | > 100 µM |  |  |  |  |  |  |  |  |  |  | 
4 | CCCCCCCCCCCCCP(=O)(O)NCC(N)=O | > 100 µM | > 100 µM | > 100 µM | > 100 µM | > 100 µM | > 100 µM | > 100 µM |  |  |  |  |  |  |  |  |  |  |  | 
5 | N/N=C1\CC(=O)NC(=O)N1 | > 100 µM | > 100 µM | > 100 µM |  |  | > 100 µM | > 100 µM |  | > 100 µM | > 100 µM |  |  |  |  |  |  |  |  | 
6 | O=C([CH-]C(=O)c1ccccc1)c1ccccc1.O=C([CH-]C(=O)c1ccccc1)c1ccccc1.[OH-].[OH-].[Ti+4] | > 100 µM | > 100 µM | > 100 µM | > 100 µM |  | > 100 µM | > 100 µM |  |  |  | 51.1 µM | > 100 µM | 58 µM | > 100 µM | > 100 µM | 40.5 µM |  |  | 
7 | CCOC1=C2N=C(Cc3ccccc3F)N=C2C(=O)c2ccccc21 | > 100 µM | > 100 µM |  | > 100 µM | > 100 µM |  | > 100 µM | > 100 µM |  |  |  |  |  |  |  |  |  |  | 
8 | CC(=O)c1c(C(F)(F)F)n([O-])c2ccc(C)cc2[n+]1=O | > 48.2 µM | > 52.2 µM | > 50.5 µM |  |  | 18.9 µM | 6.85 µM |  | > 58.5 µM | > 35.5 µM | 7.09 µM | 5.04 µM | 1.71 µM | 5.07 µM |  | 4.42 µM | 3.43 µM | 3.34 µM | 
9 | N#CN1CC[C@H](C(=O)Nc2ncc(-c3ccncc3)s2)C1 | 0.989 µM | 3.44 µM | 6.18 µM |  |  | 0.596 µM | 1.5 µM |  | 4.66 µM | > 100 µM | < 0.0162 µM | < 0.0213 µM | 0.151 µM | 0.109 µM |  | 0.121 µM | 0.0948 µM | < 0.0242 µM | 
10 | COc1ccc(/C=N/NC(=O)Cn2c(-c3ccc(S(C)(=O)=O)cc3)nc3cc(Cl)ccc32)cc1 | > 50 µM | > 50 µM | > 50 µM |  |  | 3.65 µM | > 50 µM |  | > 50 µM | > 50 µM | 0.367 µM | 0.979 µM | 1.63 µM | 4.7 µM |  | 0.79 µM | 1.77 µM | 0.956 µM | 
11 | Cc1ccc(C2=Nc3ccccc3SC(c3cccc([N+](=O)[O-])c3)C2)cc1 (configuration not stated) | 60 µM | 36.8 µM | 86.8 µM |  |  | > 100 µM | > 100 µM |  | 94.7 µM | > 100 µM |  |  |  |  |  |  |  |  | 
12 | COc1ccc(C2[C@@H](Cl)C(=O)N2c2cc(OC)c(OC)c(OC)c2)cc1Cl (some centres not stated) | 0.576 µM | 18.5 µM | 71.7 µM |  |  | 0.263 µM | 34 µM |  | 70.3 µM | > 100 µM | 0.12 µM | 0.178 µM | 0.239 µM | 0.94 µM |  | 0.0285 µM | 0.0705 µM | 0.0692 µM | 
13 | N#Cc1ccc(N=Cc2c([O-])ccc3ccccc23)cc1.[C-]#[O+].[C-]#[O+].[Ir] | 15.1 µM | 30.2 µM | 13.5 µM | 29.5 µM | 3.66 µM | 37.5 µM |  |  |  |  | 4.02 µM | 16.6 µM |  | 4.35 µM | 16 µM | 22.5 µM |  |  | 1.69 µM
14 | CC1(C)C2CCC13CS(=O)(=O)N1O[C@]13C(=O)O2 (some centres not stated) | > 100 µM | > 100 µM | > 100 µM | > 100 µM | > 100 µM | > 100 µM | > 100 µM |  |  |  |  |  |  |  |  |  |  |  | 
15 | COc1ccc2cc(-c3c(-c4ccncc4)nc(-c4ccc(S(C)=O)cc4)n3C)ccc2c1 (configuration not stated) | > 25 µM | > 25 µM | > 25 µM |  |  | > 25 µM | > 25 µM |  | > 25 µM | > 25 µM | 15.3 µM | > 24.1 µM | > 9.95 µM | > 21.8 µM |  | > 7.37 µM | 13.8 µM | > 22.9 µM | 
16 | O=C(Nc1cccc(Nc2ncc(Br)c(NCCc3cnc[nH]3)n2)c1)N1CCCC1 | 24.3 µM | 11.5 µM | 20 µM |  |  | 16.6 µM | 4.74 µM |  | 4.1 µM | > 100 µM | 4.62 µM | 0.869 µM | 0.771 µM | 3.87 µM |  | 4.31 µM | 0.747 µM | > 66.7 µM | 

Row | SMILES | TGI [1] | TGI [2] | TGI [3] | TGI [4] | TGI [5] | TGI [6] | TGI [7] | TGI [8] | TGI [9] | TGI [10] | GI50 [1] | GI50 [2] | GI50 [7] | GI50 [3] | GI50 [4] | GI50 [6] | GI50 [9] | GI50 [10] | GI50 [5]
17 | CN(C)CCC(/C=C/c1ccccc1)=N\Nc1ccc(Cl)cc1Cl | 27.5 µM | 29.7 µM | 27.2 µM |  | 29.5 µM | 30.5 µM |  | 25.9 µM |  |  |  |  |  |  |  |  |  |  | 
18 | C[C@@H]1O[C@@H](O[C@H]2CC[C@@]3(C)[C@H](CCC4[C@@H]3C(O)C[C@]3(C)[C@@H](c5ccc(=O)oc5)CC[C@]43O)C2)[C@H](O)[C@H](O)[C@H]1O (some centres not stated) | 0.00597 µM | 0.0157 µM | 0.00555 µM |  |  | 0.0357 µM | 0.0107 µM |  | 0.0659 µM | 0.00578 µM | 0.00431 µM | 0.00696 µM | 0.00608 µM | < 0.00325 µM |  | 0.00859 µM | < 0.00325 µM | < 0.00325 µM | 
19 | COc1cc(-c2cc(-c3cc([N+](=O)[O-])c(/C=N/NC(=O)c4ccncc4)o3)ccc2OC)ccc1C | > 100 µM |  | > 100 µM | > 100 µM |  | > 100 µM | > 100 µM |  |  |  |  |  |  |  |  |  |  |  | 
20 | O=C(O)COc1c(Cl)cc(Cl)c2cccnc12 | > 100 µM | > 100 µM | > 100 µM |  |  | > 100 µM | > 100 µM |  | > 100 µM | > 100 µM |  |  |  |  |  |  |  |  | 
21 | Cc1cc2c(c(C(=O)O)c1C)-c1cccc(F)c1C2=O | > 100 µM | > 100 µM | > 100 µM | > 100 µM | > 100 µM |  | > 100 µM | > 100 µM |  |  |  |  |  |  |  |  |  |  | 
22 | c1ccc2c3c([nH]c2c1)C1CCCN1CC3 (configuration not stated) | > 10 µM | > 10 µM | > 10 µM |  |  | > 10 µM | > 10 µM |  | > 10 µM | > 10 µM |  |  |  |  |  |  |  |  | 
23 | COc1ccc(C(Cl)=C(c2ccc(OCCN(C)C)cc2)c2ccc(OCCN(C)C)cc2)cc1 | 5.02 µM | 2.83 µM | 31.1 µM | 2.74 µM | 3.06 µM |  | 3.42 µM | 4.17 µM |  |  |  |  |  |  |  |  |  |  | 
24 | COc1ccc2c(c1OC)C(=O)OC2C1c2c(c([N+](=O)[O-])c3c(c2OC)OCO3)CCN1C (configuration not stated) | > 100 µM | > 100 µM | > 100 µM |  |  | > 100 µM | > 100 µM |  | > 100 µM | > 100 µM | > 100 µM | > 100 µM | > 100 µM | > 100 µM |  | > 100 µM | > 100 µM | > 100 µM | 
25 | Cc1cccc(NC(=O)c2sc3nc4c(cc3c2N)CN(Cc2ccccc2)CC4)c1C | 31.9 µM | > 50 µM | > 50 µM |  |  | > 50 µM | > 50 µM |  | > 50 µM | > 50 µM | 0.194 µM | 0.193 µM | 1.64 µM | 5.36 µM |  | 0.397 µM | 0.189 µM | 0.133 µM | 
26 | COc1ccc(OC)c(Cn2cc3c(c2)-c2oncc2CC3)c1 | 5.98 µM | 39.4 µM | > 100 µM |  |  | 7.22 µM | > 100 µM |  | 8.32 µM | 6.68 µM | 2.29 µM | 3.02 µM | 7.67 µM | 4.23 µM |  | 1.73 µM | 2.25 µM | 2.01 µM | 
27 | CSC(=S)N/N=C(\C)c1cccc(C)n1 | 1.99 µM | 42.6 µM | 33.9 µM |  |  | 10.5 µM | 10.7 µM |  | > 89 µM | > 36.3 µM |  |  |  |  |  |  |  |  | 
28 | C/C=C(\C)c1cc(O)c(C)c2c1Oc1cc(O)c(Cl)c(C)c1C(=O)O2 |  | 47.6 µM | 30.4 µM | 35.2 µM | 74.9 µM |  | 33.6 µM | 67.9 µM |  |  |  |  |  |  |  |  |  |  | 
29 | COC(=O)c1nc(-c2ccccc2)oc1S(=O)(=O)n1nc(C)cc1N | 3.99 µM | 32.4 µM | 24.6 µM |  |  | 70.2 µM | 41.1 µM |  | 90.2 µM | 57.6 µM | 2.03 µM | 16.9 µM | 16.5 µM | 11.3 µM |  | 18.7 µM | 25.8 µM | 22.5 µM | 
30 | CCCCCn1sc(=O)n(Cc2ccc(CNC(=O)OCc3ccc4cccc(O)c4n3)cc2)c1=O | 2.67 µM | 8.91 µM | 3.05 µM |  |  | 4.58 µM | 3.31 µM |  | 6.73 µM | 4.41 µM | 1.26 µM | 2.78 µM | 1.47 µM | 1.19 µM |  | 1.73 µM | 2.17 µM | 1.54 µM | 
31 | CCN1C(=O)N(CC)C2C1NN=c1s/c(=C\c3ccccc3Br)c(=O)n12 (configuration not stated) | 0.0764 µM | 1.5 µM | > 100 µM |  |  | 0.0598 µM | 4.98 µM |  | 20.5 µM | 15.3 µM | 0.0266 µM | 0.0236 µM | 0.132 µM | 12.5 µM |  | < 0.0156 µM | 0.0355 µM | 0.0228 µM | 
